Test results from patent US11214803B2, “Modulators of YAP1 expression” (Ionis Pharmaceuticals, Inc., priority 2019, dated 2022).
Strand notation (5' to 3'): a small letter for the sugar, then the base; units joined by * are phosphorothioate-linked, units joined directly phosphodiester-linked; [ ] holds rarer units or linkages, { } end groups; capitals alone tell only the bases. k = constrained ethyl (cEt); [5mC] = 5-methylcytosine; d = 2'-deoxy (DNA)

Assays:
Yap1 mRNA [1] = experiment: Antisense inhibition of human Yap1 in A-431 cells by cEt gapmers, single dose (Example 3, RTS36584); format: cell-based
In short: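 A-431 cells were treated by free uptake with 2,000 nM modified oligonucleotide (3-10-3 cEt gapmers, full phosphorothioate, 5-methylcytosines) for about 48 hours. Yap1 mRNA was quantified by real-time RT-PCR, normalized to RiboGreen total RNA, and expressed as % of untreated control; asterisked values mark oligonucleotides targeting the amplicon region.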

Yap1 mRNA [2] = experiment: Dose-dependent inhibition of human Yap1 in A-431 cells (Example 8, 10,000 cells per well, RTS4814); format: cell-based; conditions: for % UTC (Yap1 mRNA) / IC50: A-431 cells; for Yap1 mRNA, % UTC: A-431 cells, 10,000 cells per well
In short: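 A-431 cells (10,000/well) dosed with modified oligonucleotides by free uptake; Yap1 mRNA measured ~48 h later with primer-probe set RTS4814, normalized to total RNA (RIBOGREEN). Values are % of untreated control; IC50 from linear regression on log/linear plot.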

[3] = Table 34, Yap1 mRNA as percent of untreated control, 3-10-3 cEt gapmers targeting SEQ ID NO: 1 and 2, single dose
[4] = Table 29, Yap1 mRNA as percent of untreated control, 3-10-3 cEt gapmers targeting SEQ ID NO.: 1, and 2
[5] = 31.3 nM, free uptake, approximately 48 hours, RTS4814
[6] = 125.0 nM, free uptake, approximately 48 hours, RTS4814
[7] = 500.0 nM, free uptake, approximately 48 hours, RTS4814
[8] = 2000.00 nM, free uptake, approximately 48 hours, RTS4814
[9] = free uptake, approximately 48 hours, RTS4814, linear regression on log/linear plot
[10] = Table 26, Yap1 mRNA by 3-10-3 cEt gapmers targeting SEQ ID NO.: 1, and 2, percent of untreated control
[11] = Table 35, Yap1 mRNA as percent of untreated control, 3-10-3 cEt gapmers targeting SEQ ID NO: 1 and 2, single dose

1074676 (antisense k[5mC]*kA*kA*dA*dT*dT*dA*dT*dA*dG*dG*d[5mC]*dA*k[5mC]*kT*k[5mC]) [compound 1074676]
YAP1 (% UTC) (Yap1 mRNA [1]; [3]): 4 % UTC
% UTC (Yap1 mRNA) (Yap1 mRNA [2]; 31.3 nM): 54 % UTC
% UTC (Yap1 mRNA) (Yap1 mRNA [2]; 125.0 nM): 16 % UTC
% UTC (Yap1 mRNA) (Yap1 mRNA [2]; 500.0 nM): 6 % UTC
% UTC (Yap1 mRNA) (Yap1 mRNA [2]; 2000.00 nM): 5 % UTC
IC50 (Yap1 mRNA [2]; Yap1 mRNA): < 0.02 µM

1075983 (kA*kT*k[5mC]*dG*dA*dA*dA*dA*dG*d[5mC]*dA*dA*dA*k[5mC]*kT*k[5mC]; antisense) [compound 1075983]
YAP1 (% UTC) (Yap1 mRNA [1]; [4]): 5 % UTC
Yap1 mRNA, % UTC (Yap1 mRNA [2]; [5]): 81 % UTC
Yap1 mRNA, % UTC (Yap1 mRNA [2]; [6]): 46 % UTC
Yap1 mRNA, % UTC (Yap1 mRNA [2]; [7]): 17 % UTC
Yap1 mRNA, % UTC (Yap1 mRNA [2]; [8]): 6 % UTC
IC50 (Yap1 mRNA [2]; [9]): 0.1 µM

1075916 (antisense k[5mC]*kA*kA*dT*dT*dT*dA*dG*dG*dA*dT*dG*d[5mC]*k[5mC]*kT*kT) [compound 1075916]
YAP1 (% UTC) (Yap1 mRNA [1]; [10]): 6 % UTC
Yap1 mRNA, % UTC (Yap1 mRNA [2]; [5]): 73 % UTC
Yap1 mRNA, % UTC (Yap1 mRNA [2]; [6]): 34 % UTC
Yap1 mRNA, % UTC (Yap1 mRNA [2]; [7]): 14 % UTC
Yap1 mRNA, % UTC (Yap1 mRNA [2]; [8]): 8 % UTC
IC50 (Yap1 mRNA [2]; [9]): 0.1 µM

1076460 (kT*kA*kA*dT*dA*dT*dA*dG*d[5mC]*d[5mC]*d[5mC]*d[5mC]*dT*kT*k[5mC]*kA; antisense) [compound 1076460]
YAP1 (% UTC) (Yap1 mRNA [1]; [10]): 7 % UTC
Yap1 mRNA, % UTC (Yap1 mRNA [2]; [5]): 79 % UTC
Yap1 mRNA, % UTC (Yap1 mRNA [2]; [6]): 53 % UTC
Yap1 mRNA, % UTC (Yap1 mRNA [2]; [7]): 25 % UTC
Yap1 mRNA, % UTC (Yap1 mRNA [2]; [8]): 12 % UTC
IC50 (Yap1 mRNA [2]; [9]): 0.2 µM

1075701 (kA*kA*kT*dT*dA*d[5mC]*dT*dA*dG*dA*dG*dG*d[5mC]*kT*kT*k[5mC]; antisense) [compound 1075701]
YAP1 (% UTC) (Yap1 mRNA [1]; [11]): 3 % UTC
% UTC (Yap1 mRNA) (Yap1 mRNA [2]; 31.3 nM): 84 % UTC
% UTC (Yap1 mRNA) (Yap1 mRNA [2]; 125.0 nM): 34 % UTC
% UTC (Yap1 mRNA) (Yap1 mRNA [2]; 500.0 nM): 11 % UTC
% UTC (Yap1 mRNA) (Yap1 mRNA [2]; 2000.00 nM): 6 % UTC
IC50 (Yap1 mRNA [2]; Yap1 mRNA): 0.1 µM

1074479 (k[5mC]*kA*kT*dT*dT*dG*d[5mC]*d[5mC]*dT*dA*dG*dG*dT*kT*k[5mC]*k[5mC]; antisense) [compound 1074479]
YAP1 (% UTC) (Yap1 mRNA [1]; [4]): 2 % UTC
Yap1 mRNA, % UTC (Yap1 mRNA [2]; [5]): 23 % UTC
Yap1 mRNA, % UTC (Yap1 mRNA [2]; [6]): 8 % UTC
Yap1 mRNA, % UTC (Yap1 mRNA [2]; [7]): 4 % UTC
Yap1 mRNA, % UTC (Yap1 mRNA [2]; [8]): 4 % UTC
IC50 (Yap1 mRNA [2]; [9]): < 0.02 µM

1074509 (kT*kG*kT*dT*dA*dT*dG*dT*dT*dT*dG*dG*dG*kT*kG*kT; antisense) [compound 1074509]
YAP1 (% UTC) (Yap1 mRNA [1]; Table 27, Yap1 mRNA by 3-10-3 cEt gapmers targeting SEQ ID NO.: 1, and 2, percent of untreated control): 5 % UTC
Yap1 mRNA, % UTC (Yap1 mRNA [2]; [5]): 44 % UTC
Yap1 mRNA, % UTC (Yap1 mRNA [2]; [6]): 12 % UTC
Yap1 mRNA, % UTC (Yap1 mRNA [2]; [7]): 6 % UTC
Yap1 mRNA, % UTC (Yap1 mRNA [2]; [8]): 5 % UTC
IC50 (Yap1 mRNA [2]; [9]): < 0.02 µM

1076556 (kG*kT*kA*dT*dA*dG*dG*d[5mC]*dA*dG*dA*dA*dG*k[5mC]*kA*kA; antisense) [compound 1076556]
YAP1 (% UTC) (Yap1 mRNA [1]; [10]): 9 % UTC
Yap1 mRNA, % UTC (Yap1 mRNA [2]; [5]): 72 % UTC
Yap1 mRNA, % UTC (Yap1 mRNA [2]; [6]): 46 % UTC
Yap1 mRNA, % UTC (Yap1 mRNA [2]; [7]): 19 % UTC
Yap1 mRNA, % UTC (Yap1 mRNA [2]; [8]): 11 % UTC
IC50 (Yap1 mRNA [2]; [9]): 0.1 µM

1074580 (DNA kA*k[5mC]*k[5mC]*dA*d[5mC]*dT*dA*dT*dA*dA*dA*dG*d[5mC]*kT*kT*kA; further chemistry not given here) [compound 1074580]
YAP1 (% UTC) (Yap1 mRNA [1]; [3]): 5 % UTC
% UTC (Yap1 mRNA) (Yap1 mRNA [2]; 31.3 nM): 55 % UTC
% UTC (Yap1 mRNA) (Yap1 mRNA [2]; 125.0 nM): 18 % UTC
% UTC (Yap1 mRNA) (Yap1 mRNA [2]; 500.0 nM): 8 % UTC
% UTC (Yap1 mRNA) (Yap1 mRNA [2]; 2000.00 nM): 5 % UTC
IC50 (Yap1 mRNA [2]; Yap1 mRNA): < 0.02 µM

1076396 (antisense k[5mC]*kT*kA*dT*dA*dT*dT*dT*dG*dA*dG*d[5mC]*d[5mC]*kA*kT*kG) [compound 1076396]
YAP1 (% UTC) (Yap1 mRNA [1]; [10]): 2 % UTC
Yap1 mRNA, % UTC (Yap1 mRNA [2]; [5]): 64 % UTC
Yap1 mRNA, % UTC (Yap1 mRNA [2]; [6]): 22 % UTC
Yap1 mRNA, % UTC (Yap1 mRNA [2]; [7]): 5 % UTC
Yap1 mRNA, % UTC (Yap1 mRNA [2]; [8]): 3 % UTC
IC50 (Yap1 mRNA [2]; [9]): 0.04 µM

1075061 (antisense k[5mC]*k[5mC]*kT*dT*dA*dT*dA*d[5mC]*dT*dT*dT*dT*dA*kG*k[5mC]*k[5mC]) [compound 1075061]
YAP1 (% UTC) (Yap1 mRNA [1]; [11]): 5 % UTC
% UTC (Yap1 mRNA) (Yap1 mRNA [2]; 31.3 nM): 58 % UTC
% UTC (Yap1 mRNA) (Yap1 mRNA [2]; 125.0 nM): 23 % UTC
% UTC (Yap1 mRNA) (Yap1 mRNA [2]; 500.0 nM): 9 % UTC
% UTC (Yap1 mRNA) (Yap1 mRNA [2]; 2000.00 nM): 6 % UTC
IC50 (Yap1 mRNA [2]; Yap1 mRNA): < 0.02 µM

1075118 (k[5mC]*kT*kA*dT*dT*dT*dA*d[5mC]*dT*d[5mC]*dT*dG*dT*k[5mC]*kA*k[5mC]; antisense) [compound 1075118]
YAP1 (% UTC) (Yap1 mRNA [1]; Table 28, Yap1 mRNA as percent of untreated control, 3-10-3 cEt gapmers targeting SEQ ID NO.: 1, and 2): 4 % UTC
Yap1 mRNA, % UTC (Yap1 mRNA [2]; [5]): 85 % UTC
Yap1 mRNA, % UTC (Yap1 mRNA [2]; [6]): 36 % UTC
Yap1 mRNA, % UTC (Yap1 mRNA [2]; [7]): 8 % UTC
Yap1 mRNA, % UTC (Yap1 mRNA [2]; [8]): 4 % UTC
IC50 (Yap1 mRNA [2]; [9]): 0.1 µM
